Measured values: ChEMBL document CHEMBL3098108, “Design, synthesis and evaluation of dual pharmacology β2-adrenoceptor agonists and PDE4 inhibitors” (Bioorg Med Chem Lett, 2014)
Active and inactive are the calls of the source. The calls are words filed in the database; no cut-off is given here.

Experiments:
[1] = target: Beta-2 adrenergic receptor (Cavia porcellus, UniProt Q8K4Z4); test: Agonist activity at guinea pig trachea beta2-adrenergic receptor assessed as relaxation of histamine-induced tracheal ring contraction
Beta-2 adrenergic receptor, sequence (Q8K4Z4 whole entry): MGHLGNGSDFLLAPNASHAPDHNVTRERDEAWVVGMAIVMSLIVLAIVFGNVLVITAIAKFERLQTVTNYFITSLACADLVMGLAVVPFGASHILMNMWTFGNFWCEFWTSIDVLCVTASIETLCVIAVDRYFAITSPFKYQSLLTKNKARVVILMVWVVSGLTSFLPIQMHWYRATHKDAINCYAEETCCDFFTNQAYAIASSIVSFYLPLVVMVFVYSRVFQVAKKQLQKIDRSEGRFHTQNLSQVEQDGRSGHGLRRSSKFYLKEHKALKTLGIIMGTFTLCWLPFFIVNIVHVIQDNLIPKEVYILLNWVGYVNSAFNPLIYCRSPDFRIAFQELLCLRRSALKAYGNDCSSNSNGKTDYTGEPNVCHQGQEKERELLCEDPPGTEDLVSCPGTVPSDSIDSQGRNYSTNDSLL

[2] = target: 3',5'-cyclic-AMP phosphodiesterase 4B (Homo sapiens, UniProt Q07343); test: Inhibition of human recombinant PDE4B2 assessed as inhibition of cAMP hydrolysis by colorimetric assay
3',5'-cyclic-AMP phosphodiesterase 4B, sequence (Q07343 whole entry): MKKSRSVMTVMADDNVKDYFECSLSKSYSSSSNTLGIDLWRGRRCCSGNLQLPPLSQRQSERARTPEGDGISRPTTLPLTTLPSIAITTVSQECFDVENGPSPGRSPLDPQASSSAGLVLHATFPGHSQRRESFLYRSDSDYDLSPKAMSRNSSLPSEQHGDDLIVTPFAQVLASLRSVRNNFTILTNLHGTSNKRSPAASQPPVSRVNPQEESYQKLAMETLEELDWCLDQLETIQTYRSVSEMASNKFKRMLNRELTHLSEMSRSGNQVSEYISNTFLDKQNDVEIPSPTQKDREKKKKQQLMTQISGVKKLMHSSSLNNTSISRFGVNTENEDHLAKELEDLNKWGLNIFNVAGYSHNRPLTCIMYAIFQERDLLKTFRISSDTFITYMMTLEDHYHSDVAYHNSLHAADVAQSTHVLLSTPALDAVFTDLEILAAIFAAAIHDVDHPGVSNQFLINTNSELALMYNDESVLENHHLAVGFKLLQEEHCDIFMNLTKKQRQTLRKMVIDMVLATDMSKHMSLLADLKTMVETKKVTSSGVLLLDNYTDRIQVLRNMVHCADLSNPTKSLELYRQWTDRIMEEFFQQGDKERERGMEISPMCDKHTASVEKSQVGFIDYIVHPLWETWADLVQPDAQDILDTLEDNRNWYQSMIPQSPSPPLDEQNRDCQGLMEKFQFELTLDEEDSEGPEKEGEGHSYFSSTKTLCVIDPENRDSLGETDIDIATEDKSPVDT

[3] = target: Beta-2 adrenergic receptor (Cavia porcellus) (UniProt Q8K4Z4); test: Agonist activity at guinea pig trachea beta2-adrenergic receptor assessed as relaxation of histamine-induced tracheal ring contraction in presence of ICI-118551
Beta-2 adrenergic receptor (Cavia porcellus), sequence (Q8K4Z4 whole entry, looked up): as the sequence (Q8K4Z4 whole entry) above

Row | EC50 [1] | IC50 [2] | Activity [3] | Structure (SMILES)
1 | 5.02 nM | 104 nM |  | COc1ccc(C2=NN(CCCCCCOc3ccc(CC(C)NCC(O)c4ccc(O)c(NC=O)c4)cc3)C(=O)C3CCCCC23)cc1OC (racemic)
2 | 12.6 nM | 118 nM |  | COc1ccc(C2=NN(CCCCCOc3ccc(CC(C)NCC(O)c4ccc(O)c(NC=O)c4)cc3)C(=O)C3CCCCC23)cc1OC (centres undefined)
3 | 10.3 nM | 117 nM |  | COc1ccc(C2=NN(CCCCOc3ccc(CC(C)NCC(O)c4ccc(O)c(NC=O)c4)cc3)C(=O)C3CCCCC23)cc1OC (centres undefined)
4 | 1.05 nM | 92 nM | Active | COc1ccc(C2=NN(CCCCCCOc3ccc(C[C@@H](C)NC[C@H](O)c4ccc(O)c(NC=O)c4)cc3)C(=O)C3CCCCC23)cc1OC (some centres undefined)
